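Tested at 5 concentrations; 48 h exposure; 96-well plates; endpoints linearly interpolated, else capped at highest concentration. Abbreviation: GI50, concentration required for 50% inhibition of growth. TGI marks complete inhibition of growth.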
Columns and labels:
Experiment in all cases: NCI anticancer screen, dose series, 48 h
IGROV1 ovarian = test system: IGROV1 ovarian
SNB-19 CNS = test system: SNB-19 CNS
HT29 colon = test system: HT29 colon
786-0 renal = test system: 786-0 renal
UACC-257 melanoma = test system: UACC-257 melanoma
SK-MEL-2 melanoma = test system: SK-MEL-2 melanoma
KM12 colon = test system: KM12 colon
HCT-15 colon = test system: HCT-15 colon
MDA-MB-231 breast = test system: MDA-MB-231 breast
CAKI-1 renal = test system: CAKI-1 renal
HL-60(TB) leukemia = test system: HL-60(TB) leukemia
ACHN renal = test system: ACHN renal
UACC-62 melanoma = test system: UACC-62 melanoma
T-47D breast = test system: T-47D breast
SK-MEL-5 melanoma = test system: SK-MEL-5 melanoma
SR leukemia = test system: SR leukemia
SK-OV-3 ovarian = test system: SK-OV-3 ovarian
U251 CNS = test system: U251 CNS
OVCAR-8 ovarian = test system: OVCAR-8 ovarian
MCF7 breast = test system: MCF7 breast
OVCAR-5 ovarian = test system: OVCAR-5 ovarian
MOLT-4 leukemia = test system: MOLT-4 leukemia
OVCAR-4 ovarian = test system: OVCAR-4 ovarian
PC-3 prostate = test system: PC-3 prostate
HOP-92 NSCLC = test system: HOP-92 NSCLC
UO-31 renal = test system: UO-31 renal
BT-549 breast = test system: BT-549 breast
TK-10 renal = test system: TK-10 renal
MDA-MB-435 = test system: MDA-MB-435
EKVX NSCLC = test system: EKVX NSCLC
HCC-2998 colon = test system: HCC-2998 colon
K-562 leukemia = test system: K-562 leukemia
CCRF-CEM leukemia = test system: CCRF-CEM leukemia
A498 renal = test system: A498 renal
DU-145 prostate = test system: DU-145 prostate
MALME-3M melanoma = test system: MALME-3M melanoma
OVCAR-3 ovarian = test system: OVCAR-3 ovarian
SK-MEL-28 melanoma = test system: SK-MEL-28 melanoma
HS 578T breast = test system: HS 578T breast
NCI-H460 lung = test system: NCI-H460 lung
SF-539 CNS = test system: SF-539 CNS
HCT-116 colon = test system: HCT-116 colon
NCI/ADR-RES ovarian = test system: NCI/ADR-RES ovarian
M14 melanoma = test system: M14 melanoma
LOX IMVI melanoma = test system: LOX IMVI melanoma
RXF 393 renal = test system: RXF 393 renal
SF-295 CNS = test system: SF-295 CNS
HOP-62 NSCLC = test system: HOP-62 NSCLC
RPMI-8226 leukemia = test system: RPMI-8226 leukemia
A549 NSCLC = test system: A549 NSCLC
SN12C renal = test system: SN12C renal
NCI-H522 lung = test system: NCI-H522 lung

COc1ccc(-c2nc3cc(Cl)c(Cl)cc3n2CC(=O)N=Nc2c(O)[nH]c3ccc(Cl)cc23)cc1
GI50 (IGROV1 ovarian): 1.74 µM | TGI (IGROV1 ovarian): 3.46 µM | GI50 (SNB-19 CNS): 2 µM | TGI (SNB-19 CNS): 4.21 µM | GI50 (HT29 colon): 1.83 µM | TGI (HT29 colon): 3.5 µM | GI50 (786-0 renal): 1.8 µM | TGI (786-0 renal): 3.28 µM | GI50 (UACC-257 melanoma): 1.64 µM | TGI (UACC-257 melanoma): 3.29 µM | GI50 (SK-MEL-2 melanoma): 1.85 µM | TGI (SK-MEL-2 melanoma): 3.62 µM | GI50 (KM12 colon): 2.15 µM | TGI (KM12 colon): 5.18 µM | GI50 (HCT-15 colon): 1.92 µM | TGI (HCT-15 colon): 3.88 µM | GI50 (MDA-MB-231 breast): 1.85 µM | TGI (MDA-MB-231 breast): 3.97 µM | GI50 (CAKI-1 renal): 1.5 µM | TGI (CAKI-1 renal): 2.85 µM | GI50 (HL-60(TB) leukemia): 4.87 µM | TGI (HL-60(TB) leukemia): > 100 µM | GI50 (ACHN renal): 1.78 µM | TGI (ACHN renal): 3.2 µM | GI50 (UACC-62 melanoma): 1.7 µM | TGI (UACC-62 melanoma): 3.39 µM | GI50 (T-47D breast): 1.71 µM | TGI (T-47D breast): 3.56 µM | GI50 (SK-MEL-5 melanoma): 2 µM | TGI (SK-MEL-5 melanoma): 4.04 µM | GI50 (SR leukemia): 3.03 µM | TGI (SR leukemia): > 100 µM | GI50 (SK-OV-3 ovarian): 1.64 µM | TGI (SK-OV-3 ovarian): 3.24 µM | GI50 (U251 CNS): 1.69 µM | TGI (U251 CNS): 3.14 µM | GI50 (OVCAR-8 ovarian): 1.76 µM | TGI (OVCAR-8 ovarian): 3.29 µM | GI50 (MCF7 breast): 1.83 µM | TGI (MCF7 breast): 3.62 µM | GI50 (OVCAR-5 ovarian): 1.91 µM | TGI (OVCAR-5 ovarian): 3.78 µM | GI50 (MOLT-4 leukemia): 4.44 µM | TGI (MOLT-4 leukemia): > 100 µM | GI50 (OVCAR-4 ovarian): 1.74 µM | TGI (OVCAR-4 ovarian): 3.37 µM | GI50 (PC-3 prostate): 1.68 µM | TGI (PC-3 prostate): 3.34 µM | GI50 (HOP-92 NSCLC): 1.16 µM | TGI (HOP-92 NSCLC): 2.77 µM | GI50 (UO-31 renal): 1.26 µM | TGI (UO-31 renal): 2.53 µM | GI50 (BT-549 breast): 2.51 µM | TGI (BT-549 breast): 6.44 µM | GI50 (TK-10 renal): 2.86 µM | TGI (TK-10 renal): 7.07 µM | GI50 (MDA-MB-435): 1.74 µM | TGI (MDA-MB-435): 3.4 µM | GI50 (EKVX NSCLC): 2.12 µM | TGI (EKVX NSCLC): 4.94 µM | GI50 (HCC-2998 colon): 1.92 µM | TGI (HCC-2998 colon): 3.56 µM | GI50 (K-562 leukemia): 2.43 µM | TGI (K-562 leukemia): 6.22 µM | GI50 (CCRF-CEM leukemia): 3.93 µM | TGI (CCRF-CEM leukemia): > 100 µM | GI50 (A498 renal): 1.91 µM | TGI (A498 renal): 3.55 µM | GI50 (DU-145 prostate): 1.86 µM | TGI (DU-145 prostate): 3.5 µM | GI50 (MALME-3M melanoma): 1.76 µM | TGI (MALME-3M melanoma): 3.37 µM | GI50 (OVCAR-3 ovarian): 1.73 µM | TGI (OVCAR-3 ovarian): 3.2 µM | GI50 (SK-MEL-28 melanoma): 1.78 µM | TGI (SK-MEL-28 melanoma): 3.25 µM | GI50 (HS 578T breast): 2.12 µM | TGI (HS 578T breast): 5.53 µM | GI50 (NCI-H460 lung): 1.86 µM | TGI (NCI-H460 lung): 3.51 µM | GI50 (SF-539 CNS): 1.71 µM | TGI (SF-539 CNS): 3.18 µM | GI50 (HCT-116 colon): 1.83 µM | TGI (HCT-116 colon): 3.35 µM | GI50 (NCI/ADR-RES ovarian): 1.84 µM | TGI (NCI/ADR-RES ovarian): 3.79 µM | GI50 (M14 melanoma): 1.81 µM | TGI (M14 melanoma): 3.5 µM | GI50 (LOX IMVI melanoma): 1.78 µM | TGI (LOX IMVI melanoma): 3.33 µM | GI50 (RXF 393 renal): 1.72 µM | TGI (RXF 393 renal): 3.17 µM | GI50 (SF-295 CNS): 1.94 µM | TGI (SF-295 CNS): 3.6 µM | GI50 (HOP-62 NSCLC): 1.61 µM | TGI (HOP-62 NSCLC): 3.16 µM | GI50 (RPMI-8226 leukemia): 2.31 µM | TGI (RPMI-8226 leukemia): 6.54 µM | GI50 (A549 NSCLC): 1.76 µM | TGI (A549 NSCLC): 3.53 µM | GI50 (SN12C renal): 1.95 µM | TGI (SN12C renal): 3.76 µM | GI50 (NCI-H522 lung): 1.73 µM | TGI (NCI-H522 lung): 3.72 µM

From PubChem BioAssay (NCI)
